Data taken from article PMC12813973, “Consequences of Peptide Macrocyclization Revealed by Virus-Inspired β‑Hairpin Mimetics” (ACS Chemical Biology, 2025).
Where two headings read alike, the source gives them in different places.

Columns and labels:
[1] = biological target: T1, STAT1 (Homo sapiens, UniProt P42224); assay: Isothermal titration calorimetry (ITC) of peptide binding to STAT1
T1 construct: full-length STAT1 (Uniprot #P42224-1) was expressed in E. coli; His tag (pEXP-NHis vector) (N); made in house; host or cells: E. coli T7 Express
T1 sequence (P42224 1-750): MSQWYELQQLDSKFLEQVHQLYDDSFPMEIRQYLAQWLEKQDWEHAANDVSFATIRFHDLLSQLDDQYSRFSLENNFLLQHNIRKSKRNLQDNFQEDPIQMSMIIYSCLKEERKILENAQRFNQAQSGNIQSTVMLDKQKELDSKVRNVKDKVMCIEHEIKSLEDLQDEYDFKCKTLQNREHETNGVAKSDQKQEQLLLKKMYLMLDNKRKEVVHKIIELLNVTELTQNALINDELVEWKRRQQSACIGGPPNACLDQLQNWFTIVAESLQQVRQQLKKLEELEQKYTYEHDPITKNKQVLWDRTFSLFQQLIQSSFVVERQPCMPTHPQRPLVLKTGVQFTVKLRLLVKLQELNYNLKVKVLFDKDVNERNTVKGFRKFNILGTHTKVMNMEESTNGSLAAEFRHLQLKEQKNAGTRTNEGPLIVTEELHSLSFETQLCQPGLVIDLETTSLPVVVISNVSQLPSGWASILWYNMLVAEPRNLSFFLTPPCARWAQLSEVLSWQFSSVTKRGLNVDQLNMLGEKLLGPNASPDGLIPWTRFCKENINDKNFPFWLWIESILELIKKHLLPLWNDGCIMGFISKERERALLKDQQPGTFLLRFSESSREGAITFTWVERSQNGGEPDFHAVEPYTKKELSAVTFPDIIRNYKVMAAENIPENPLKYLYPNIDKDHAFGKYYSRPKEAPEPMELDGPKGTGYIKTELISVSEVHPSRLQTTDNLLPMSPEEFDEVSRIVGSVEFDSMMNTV
Description: To determine affinities and thermodynamic profiles of binding, we performed isothermal titration calorimetry (ITC) experiments for peptides 1, 2, 3, 4, 7, and 8 (Figures A,B and S1,S2, Table S1). […] The experiments were repeated in two different buffer systems, TBST (50 mM Tris pH 8.0, 300 mM NaCl, 0.01% Tween-20) and PBST ([…], 150 mM NaCl, 0.01% Tween-20), to account for possible buffer protonation enthalpy artifacts. […]
Isothermal titration calorimetry (ITC)
ITC experiments were performed using a PEAQ ITC instrument (Malvern Panalytical) in either TBST (50 mM Tris pH 8.0, 300 mM NaCl, 0.5 mM TCEP, 0.01% Tween -20) or PBST (10 mM sodium phosphate pH 7.4, 150 mM NaCl, 0.01% Tween -20) as reaction buffers. STAT1 protein was buffer -exchanged into reaction buffer supplemented with 2% DMSO on a NAP -5 deslating column (Cytiv a #17085301) and its concentration was adjusted to 10 or 20 μM.
Peptides were diluted in reaction buffer from DMSO stocks to a matching 2% DMSO concentration. Peptide concentrations were adjusted to approximately 100-200 μM. ITC experiments were performed with STAT1 in the cell and peptides in the syringe at 25°C, with 750 RPM stirring, DP = 4 μcal/sec. 18 injections of 2 μl were performed over a 50 min titration.
Thermogram integra tion and isotherm fitting were performed using the PEAQ ITC analysis software (Malvern Panalytical ). Isotherms were fitted using a 1:1 binding model. Due to challenges in determining peptide concentrations with high accuracy , protein concentrations and stoichiometry (N=1.0) were kept constant during isotherm fitting, whereas peptide concentrations were allowed to vary. Fixing a single reactant concentration during fitting is acceptable given the sufficiently high C -values and isotherm curvature observed in the […]
Offset subtraction was implemented to remove injection heats.

[2] = biological target: T2, STAT3 (Homo sapiens, UniProt P40763); assay: biochemical; assay type: binding; details: for KD: analyte 10 µM (1, 3, 5) or 0.5 µM (4, 6), n.b. – no binding observed
T2 construct: STAT3: the gene encoding full-length STAT3 was codon optimised for expression in; MBP (pEXP-MBP vector) (cleaved yes); His tag (IMAC capture, removed with the fusion by TEV and reverse IMAC) (cleaved yes); made in house; host or cells: E. coli T7 Express
T2 sequence (P40763 whole entry, species assumed, the tested form may be a part): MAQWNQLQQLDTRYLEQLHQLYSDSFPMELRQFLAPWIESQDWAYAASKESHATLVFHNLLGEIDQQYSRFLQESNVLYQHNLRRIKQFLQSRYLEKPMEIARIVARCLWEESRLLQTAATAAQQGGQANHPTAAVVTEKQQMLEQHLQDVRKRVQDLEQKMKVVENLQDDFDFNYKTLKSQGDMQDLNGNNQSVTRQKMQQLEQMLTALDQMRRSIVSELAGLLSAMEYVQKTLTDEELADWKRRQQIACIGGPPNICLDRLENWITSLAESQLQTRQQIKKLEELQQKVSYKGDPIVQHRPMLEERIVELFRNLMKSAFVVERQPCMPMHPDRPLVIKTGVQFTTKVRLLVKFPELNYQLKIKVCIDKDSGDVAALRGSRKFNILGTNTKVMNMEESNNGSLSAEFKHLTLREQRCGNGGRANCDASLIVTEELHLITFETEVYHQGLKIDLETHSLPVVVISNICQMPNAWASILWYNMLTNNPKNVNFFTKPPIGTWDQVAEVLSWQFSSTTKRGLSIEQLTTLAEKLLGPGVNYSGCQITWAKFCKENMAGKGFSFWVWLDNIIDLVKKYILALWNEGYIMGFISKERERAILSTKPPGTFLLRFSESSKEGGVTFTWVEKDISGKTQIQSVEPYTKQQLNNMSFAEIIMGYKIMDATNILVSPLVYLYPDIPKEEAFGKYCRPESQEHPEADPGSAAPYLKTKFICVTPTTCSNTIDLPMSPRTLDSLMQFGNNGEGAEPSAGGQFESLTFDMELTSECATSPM
Description: In such PPIs, the bulk of the binding energy contribution typically stems from backbone interactions, whereas binding specificity is fine-tuned by side-chain contacts. […] We evaluated the binding kinetics of peptides to full-length STAT3 using GCI.
Grating coupled interferometry (GCI)
GCI experiments were performed on a Creoptix WaveDELTA instrument (Malvern Panalytical). Full-length STAT1 or STAT3 were immobilised on a 4PCH chip (Malvern Panalytical #4PCH-03) to a density 2000-8000 pg/mm2 using EDC/NHS activation followed by amine coupling. Briefly, proteins (500 nM) were applied onto an activated chip in 10 mM MES pH 6.5, 20 mM NaCl, after which the chip surface was passivated with 1M ethanolamine, pH 8.0.
The kinetic measurements were perfor med using 20 mM HEPES pH 7.5, 300 mM NaCl, 0.01% Tween-20, 0.0005% DMSO as running buffer. Peptides were tested at 0.5 or 10 μM concentration using the waveRAPID kinetics experiment with the tight binder or intermediate binder mode, respectively.[4] Sensorgrams were fitted in the waveControl software (Malven Panalytical) using the 1:1 kinetic model. […]
GCI sensorgrams depicting RAPID kinetics measurements and fitted kinetic models for peptide binding to full-length STAT3 immobilised on a polycarboxylate hydrogel chip (4PCH). Peptides were applied at 0.5 or 10 μM concentration using the medium or tight binders pulse sequence. The peptides that show negligible Rmax values at 10 μM analyte concentration were classified as non-binding.
(1 picture or pasted object on this page, not shown here)

[3] = PBST, replicate 1 (first listed run, Table S1)
[4] = PBST, replicate 2 (second listed run, Table S1)
[5] = PBST, replicate 3 (third listed run, Table S1)
[6] = TBST, replicate 1 (first listed run, Table S1)
[7] = TBST, replicate 2 (second listed run, Table S1)
[8] = TBST, replicate 3 (third listed run, Table S1)

Compound: CC[C@H](C)[C@H](NC(=O)[C@H](Cc1ccccc1)NC(=O)[C@@H](NC(=O)[C@H](CO)NC(=O)[C@H](Cc1c[nH]c2ccccc12)NC(=O)[C@H](CCSC)NC(C)=O)C(C)C)C(=O)N[C@@H](Cc1c[nH]cn1)C(=O)NCC(=O)N[C@@H](Cc1c[nH]cn1)C(=O)N[C@@H](CC(=O)O)C(=O)NCC(=O)N[C@@H](CO)C(=O)N[C@@H](CC(N)=O)C(=O)N[C@@H](CCCCN)C(=O)NCC(=O)N[C@@H](CO)C(=O)N[C@@H](CCCCN)C(=O)N[C@H](C(=O)N[C@@H](Cc1ccc(O)cc1)C(=O)N[C@H](C(N)=O)[C@@H](C)O)[C@@H](C)O [Peptide 1]
- Kd ([1]; PBST pH 7.4 (NaPi, 150 mM NaCl, 0.01% Tween-20), average of 2–3 technical replicates, read-out: KD (ITC, summary Fig 2B)): 0.253 µM
- -T∆S [1, 3]: 13.8 kcal/mol
- ∆G [1, 3]: -9.00 kcal/mol
- ∆H [1, 3]: -22.8 kcal/mol
- -T∆S [1, 4]: 12.7 kcal/mol
- ∆G [1, 4]: -9.17 kcal/mol
- ∆H [1, 4]: -21.8 kcal/mol
- -T∆S [1, 5]: 13.7 kcal/mol
- ∆G [1, 5]: -8.87 kcal/mol
- ∆H [1, 5]: -22.6 kcal/mol
- Kd ([1]; TBST (50 mM Tris pH 8.0, 300 mM NaCl, 0.01% Tween-20), 25°C, 1:1 model, average of three technical replicates ± SD (text and Fig 2A), SD, read-out: KD (ITC)): 0.533 ± 0.02 µM
- -TΔS (ITC) ([1]; TBST, mean ± SD, SD): 10.10 ± 1.48 kcal/mol
- ΔH (ITC) ([1]; TBST, mean ± SD, SD): -18.56 ± 1.55 kcal/mol
- -T∆S [1, 6]: 9.86 kcal/mol
- ∆G [1, 6]: -8.54 kcal/mol
- ∆H [1, 6]: -18.1 kcal/mol
- -T∆S [1, 7]: 8.75 kcal/mol
- ∆G [1, 7]: -8.58 kcal/mol
- ∆H [1, 7]: -17.3 kcal/mol
- -T∆S [1, 8]: 11.7 kcal/mol
- ∆G [1, 8]: -8.55 kcal/mol
- ∆H [1, 8]: -20.3 kcal/mol
- KD ([2]; replicate 1 (first listed run, Table S2)): n.b.
- KD ([2]; replicate 2 (second listed run, Table S2)): n.b.
- STAT3 binding (GCI), in words ([2]; full-length STAT3, negligible Rmax at 10 μM classified as non-binding): not detected
